Moisture content data for one compound are collected here from US7309788B2, “Method for preparing pyrimidinone compound and pharmaceutically acceptable salts thereof” (Boryung Pharmaceutical Co., Ltd., priority 2001, dated 2007).

This data set can be described thus: Stability: hourly moisture content (moisture absorption from the air). The data set is classed as physicochemical. From the text: As a result, the moisture content increased, as the time went by. […] The elementary analysis data for the aforementioned hydrates is illustrated in the following Table 2.

Turning to `CCCCc1nc(C)c(CC(=S)N(C)C)c(=O)n1Cc1ccc(-c2ccccc2-c2nnn[nH]2)cc1` [Example 3, 2-n-butyl-5-dimethylaminothiocarbonylmethyl-6-methyl-3-[[2′-(1 H-tetrazol-5-yl)biphenyl-4-yl]methyl]-pyrimidin-4(3H)-one], the moisture content came out at 6.2% (60% RH, Time 1 hour); 9.1% (60% RH, Time 2 hour); 9.15% (60% RH, Time 3 hour); 9.1% (60% RH, Time 4 hour); 9.2% (60% RH, Time 5 hour); 9.1% (60% RH, Time 6 hour). The moisture content came out at 9.05% (75% RH, Time 1 hour); 9.1% (75% RH, Time 2 hour); 9.1% (75% RH, Time 3 hour); 9.15% (75% RH, Time 4 hour); 9.2% (75% RH, Time 5 hour); 9.1% (75% RH, Time 6 hour). The compound further showed a moisture content (Room temperature & Room humidity, Time 1 hour) of 3.4%; a moisture content (Room temperature & Room humidity, Time 2 hour) of 5.6%; a moisture content (Room temperature & Room humidity, Time 3 hour) of 9.1%; a moisture content (Room temperature & Room humidity, Time 4 hour) of 9.2%; a moisture content (Room temperature & Room humidity, Time 5 hour) of 9.1%; a moisture content (Room temperature & Room humidity, Time 6 hour) of 9.1%.
